Source: US9796733B2, “Imidazo-pyrazine derivatives useful as soluble guanylate cyclase activators” (Merck Sharp & Dohme Corp., priority 2014, dated 2017)

Target: T1, sGC α1/β1 heterodimer (Homo sapiens, UniProt Q02108+Q02153)
T1 construct: expressed in transfected cells; host or cells: CHO-K1 (clone #7, CHO-K1/sGC)
T1 sequence (Q02108 1-690): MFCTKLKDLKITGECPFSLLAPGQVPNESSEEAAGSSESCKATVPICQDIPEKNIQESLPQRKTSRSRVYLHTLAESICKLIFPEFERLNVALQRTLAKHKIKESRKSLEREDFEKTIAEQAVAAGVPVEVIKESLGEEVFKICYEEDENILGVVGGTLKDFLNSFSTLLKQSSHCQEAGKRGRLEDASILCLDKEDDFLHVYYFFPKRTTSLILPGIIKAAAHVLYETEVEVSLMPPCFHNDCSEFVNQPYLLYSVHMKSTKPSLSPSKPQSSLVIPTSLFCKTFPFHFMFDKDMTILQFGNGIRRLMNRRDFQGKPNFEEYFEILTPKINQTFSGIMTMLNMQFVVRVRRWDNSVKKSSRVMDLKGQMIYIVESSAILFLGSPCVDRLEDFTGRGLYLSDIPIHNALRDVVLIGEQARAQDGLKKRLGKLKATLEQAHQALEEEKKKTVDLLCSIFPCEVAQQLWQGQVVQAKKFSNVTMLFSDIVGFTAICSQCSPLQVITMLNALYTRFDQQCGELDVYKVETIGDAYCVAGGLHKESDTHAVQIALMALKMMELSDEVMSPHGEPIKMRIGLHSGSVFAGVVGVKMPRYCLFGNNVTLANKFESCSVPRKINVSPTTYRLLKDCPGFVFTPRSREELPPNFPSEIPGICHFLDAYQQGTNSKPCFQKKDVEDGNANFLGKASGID
T1 sequence (Q02153 1-619): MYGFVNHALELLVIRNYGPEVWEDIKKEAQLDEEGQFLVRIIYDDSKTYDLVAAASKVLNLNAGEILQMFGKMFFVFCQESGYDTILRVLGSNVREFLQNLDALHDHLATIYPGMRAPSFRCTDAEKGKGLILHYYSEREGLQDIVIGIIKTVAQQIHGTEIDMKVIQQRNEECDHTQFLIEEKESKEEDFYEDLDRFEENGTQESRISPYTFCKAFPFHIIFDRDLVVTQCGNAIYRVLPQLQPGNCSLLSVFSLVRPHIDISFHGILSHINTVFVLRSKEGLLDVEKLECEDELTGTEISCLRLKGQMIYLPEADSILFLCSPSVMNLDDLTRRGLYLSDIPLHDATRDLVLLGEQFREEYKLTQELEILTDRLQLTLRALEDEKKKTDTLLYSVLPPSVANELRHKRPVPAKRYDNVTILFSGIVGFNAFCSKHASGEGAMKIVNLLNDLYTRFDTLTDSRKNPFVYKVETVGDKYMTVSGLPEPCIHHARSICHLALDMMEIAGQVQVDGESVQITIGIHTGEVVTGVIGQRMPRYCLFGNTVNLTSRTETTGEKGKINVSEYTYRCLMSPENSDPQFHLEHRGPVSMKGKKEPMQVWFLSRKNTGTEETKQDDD
Experiment: Cell-based sGC functional assay (CASA assay): cGMP generation in CHO-K1/sGC cells, HTRF detection
Conditions: for Emax: CHO-K1, percent activation relative to standard Compound A in CHO-K1/sGC cells, read-out: % Act.; for EC50: inflection point (IP) of cGMP generation in CHO-K1/sGC cells, 4P fit, activity expressed as percentage of Compound A
Outline: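 Stable CHO-K1/sGC cells in EBSS buffer with 5 mM MgCl2, 0.05% BSA and 0.5 mM IBMX were incubated with compound (2.5% DMSO final) ±1 μM DETA-NO for 1 hr at 37° C. cGMP was measured by HTRF. Activation is expressed as % of reference HDA Compound A maximum, with IP and max fold induction from a 4P fit.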

| SMILES | Emax | EC50 | % Act. (percent activation relative to standard Compound A in CHO-K1/sGC cells) |
| --- | --- | --- | --- |
| COc1ccc(C2(C)C(=O)Nc3nc(-c4cn5ccnc5c(CCC(F)(F)C(F)(F)F)n4)nc(N)c32)nc1 (centres unmarked) [Example 248B, 4-amino-5-(5-methoxypyridin-2-yl)-5-methyl-2-(8-(3,3,4,4,4-pentafluorobutyl)imidazo [12-a]pyrazin-6-yl)-5H-pyrrolo[2,3-d]pyrimidin-6(7H)-one] | 88% | 82 nM |  |
| CC1(c2ccc(F)cc2)C(=O)Nc2nc(-c3cn4cc(C(F)(F)F)nc4c(CCC(F)(F)C(F)(F)F)n3)nc(N)c21 (centres unmarked) [Example 156A, 4-amino-5-(4-fluorophenyl)-5-methyl-2-(8-(3,3,4,4,4-pentafluorobutyl)-2-(trifluoromethyl)imidazo[1,2-a]pyrazin-6-yl)-5H-pyrrolo[2,3-d]pyrimidin-6(7H)-one] | 92% | 163 nM |  |
| CC1(C)CN(c2nc(-c3cn4ccnc4c(CCC(F)(F)C(F)(F)F)n3)nc3c2C(C)(c2ccc(F)cc2)C(=O)N3)CCO1 (centres unmarked) [Example 304A, 4-(2,2-dimethylmorpholino)-5-(4-fluorophenyl)-5-mehtyl-2-(8-(3,3,4,4,4-pentafluorobutyl)imidazo[1,2-a]pyrazin-6-yl)-5H-pyrrolo[2,3-d]pyrimidin-6(7H)-one] | 89% | 415 nM |  |
| Nc1nc(-c2cn3cc(C(F)(F)F)nc3c(Cc3cccc(F)c3)n2)nc2c1C(C(=O)NC1CC1)(C1CC1)C(=O)N2 (centres unmarked) [Example 44B, 4-amino-N,5-dicyclopropyl-2-(8-(3-fluorobenzyl)-2-(trifluoromethyl)imidazo[1,2-a]pyrazin-6-yl)-6-oxo-6,7-dihydro-5H-pyrrolo[2,3-d]pyrimidine-5-carboxamide] | 88% | 286 nM |  |
| CC1(c2ccc(F)cc2)C(=O)Nc2nc(-c3cn4ccnc4c(Cc4ccc(F)cc4)n3)nc(N)c21 (centres unmarked) [Example 92A, 4-amino-2-(8-(4-fluorobenzyl)imidazo[1,2-a]pyrazin-6-yl)-5-(4-fluorophenyl)-5-methyl-5H-pyrrolo[2,3-d]pyrimidin-6(7H)-one] | 97% | 9 nM |  |
| CC1(c2ccc(F)cn2)C(=O)Nc2nc(-c3cn4ccnc4c(CCC(F)(F)C(F)(F)F)n3)nc(N3CCOCC3)c21 (centres unmarked) [Example 294B, 5-(5-fluoropyridin-2-yl)-5-methyl-4-morpholino-2-(8-(3,3,4,4,4-pentafluorobutyl)imidazo[1,2-a]pyrazin-6-yl)-5H-pyrrolo[2,3-d]pyrimidin-6(7H)-one] | 89% | 444 nM |  |
| CC1(C)C(=O)Nc2nc(-c3cn4ccnc4c(CCC(F)(F)C(F)(F)F)n3)nc(N)c21 [Example 87, 4-amino-5,5-dimethyl-2-(8-(3,3,4,4,4-pentafluorobutyl)imidazo [1,2-a]pyrazin-6-yl)-5H-pyrrolo[2,3-d]pyrimidin-6(7H)-one] | 54% | 399 nM |  |
| Nc1nc(-c2cn3ccnc3c(CCC(F)(F)C(F)(F)F)n2)nc2c1C(c1ccc(Cl)cc1)(C1CCC1)C(=O)N2 (single isomer, unassigned) [Example 350B, 4-amino-5-(4-chlorophenyl)-5-cyclobutyl-2-(8-(3,3,4,4,4-pentafluorobutyl)imidazo[1,2-a]pyrazin-6-yl)-5H-pyrrolo[2,3-d]pyrimidin-6(7H)-one] | 239% | 105 nM |  |
| CC(C)Cc1nc(-c2nc(N)c3c(n2)NC(=O)C3(C)c2ccc(C(F)(F)F)cc2)cn2ccnc12 (centres unmarked) [Example 128B, 4-amino-2-(8-isobutylimidazo[1,2-a]pyrazin-6-yl)-5-methyl-5-(4-(trifluoromethyl)phenyl)-5H-pyrrolo[2,3-d]pyrimidin-6(7H)-one] | 108% | 164 nM |  |
| Cc1cn2cc(-c3nc(N)c4c(n3)NC(=O)C4(C)c3ccc(F)cn3)nc(Cc3ccc(F)cc3)c2n1 (centres unmarked) [Example 162B, 4-amino-2-(8-(4-fluorobenzyl)-2-methylimidazo[1,2-a]pyrazin-6-yl)-5-(5-fluoropyridin-2-yl)-5-methyl-5H-pyrrolo[2,3-d]pyrimidin-6(7H)-one] | 88% | 168 nM |  |
| CC1CN(c2nc(-c3cn4ccnc4c(CCC(F)(F)C(F)(F)F)n3)nc3c2C(C)(c2ccc(F)cc2)C(=O)N3)C1 (centres unmarked) [Example 305A, 5-(4-fluorophenyl)-5-methyl-4-(3-methylazetidin-1-yl)-2-(8-(3,3,4,4,4-pentafluorobutyl)imidazo[1,2-a]pyrazin-6-yl)-5H-pyrrolo[2,3-d]pyrimidin-6(7H)-one] | 158% | 147 nM |  |
| Cc1ncc(C2(C3CC3)C(=O)Nc3nc(-c4cn5ccnc5c(CCC(F)(F)C(F)(F)F)n4)nc(N)c32)cn1 (single isomer, unassigned) [Example 348B, 4-amino-5-cyclopropyl-5-(2-methylpyrimidin-5-yl)-2-(8-(3,3,4,4,4-pentafluorobutyl)imidazo[1,2-a]pyrazin-6-yl)-5H-pyrrolo[2,3-d]pyrimidin-6(7H)-one] | 175% | 1550 nM |  |
| COc1ccc(C2(C)C(=O)Nc3nc(-c4cn5ccnc5c(CCC(F)(F)F)n4)nc(N)c32)cc1 (centres unmarked) [Example 192B, 4-amino-5-(4-methoxyphenyl)-5-methyl-2-(8-(3,3,3-trifluoropropyl)imidazo[1,2-a]pyrazin-6-yl)-5H-pyrrolo[2,3-d]pyrimidin-6(7H)-one] | 168% | 923 nM |  |
| CC1(C)C(=O)Nc2nc(-c3cn4c(Br)cnc4c(CCC(F)(F)C(F)(F)F)n3)nc(N)c21 [Example 263, 4-amino-2-(3-bromo-8-(3,3,4,4,4-pentafluorobutyl)imidazo[1,2-a]pyrazin-6-yl)-5,5-dimethyl-5H-pyrrolo[2,3-d]pyrimidin-6(7H)-one] | 20% | 314 nM |  |
| CC1(c2ccc(C(F)(F)F)cn2)C(=O)Nc2nc(-c3cn4ccnc4c(CC4CCC4)n3)nc(N)c21 (centres unmarked) [Example 119B, 4-amino-2-(8-(cyclobutylmethyl)imidazo [1,2-a]pyrazin-6-yl)-5-methyl-5-(5-(trifluoromethyl)pyridin-2-yl)-5H-pyrrolo[2,3-d]pyrimidin-6(7H)-one] | 121% | 161 nM |  |
| CC(C)Cc1nc(-c2nc(N)c3c(n2)NC(=O)C3(C)c2ccc(Cl)cn2)cn2ccnc12 (centres unmarked) [Example 125A, 4-amino-5-(5-chloropyridin-2-yl)-2-(8-isobutylimidazo[1,2-a]pyrazin-6-yl)-5-methyl-5H-pyrrolo[2,3-d]pyrimidin-6(7H)-one] | 97% | 41 nM |  |
| CCc1cn2cc(-c3nc(N)c4c(n3)NC(=O)C4(C)c3ccccc3)nc(CCC(F)(F)C(F)(F)F)c2n1 (centres unmarked) [Example 160B, 4-amino-2-(2-ethyl-8-(3,3,4,4,4-pentafluorobutyl)imidazo [1,2-a]pyrazin-6-yl)-5-methyl-5-phenyl-5H-pyrrolo[2,3-d]pyrimidin-6(7H)-one] | 102% | 978 nM |  |
| COC(=O)c1cccc(C2(C)C(=O)Nc3nc(-c4cn5ccnc5c(CCC(F)(F)C(F)(F)F)n4)nc(N)c32)c1 (single isomer, unassigned) [Example 270B, Methyl 3-(4-amino-5-methyl-6-oxo-2-(8-(3,3,4,4,4-pentafluorobutyl)imidazo[1,2-a]pyrazin-6-yl)-6,7-dihydro-5H-pyrrolo[2,3-d]pyrimidin-5-yl)benzoate] | 101% | 319 nM |  |
| CCC1(C2CC2)C(=O)Nc2nc(-c3cn4ccnc4c(Cc4ccccc4)n3)nc(N)c21 (single isomer, unassigned) [Example 77A, 4-amino-2-(8-benzylimidazo[1,2-a]pyrazin-6-yl)-5-cyclopropyl-5-ethyl-5H-pyrrolo[2,3-d]pyrimidin-6(7H)-one] |  | 90 nM | 151% |
